pIC50: −log10 of the molar value.

One experiment deals with Acetylcholinesterase (Electrophorus electricus, UniProt O42275). Kind of experiment: Inhibition of Electrophorus electricus AChE using acetylthiocholine iodide as substrate measured during 6 mins by Ellman's method. On the technique in general: DTNB colorimetry detects thiols as they appear.
Experiment [1] deals with Acetylcholinesterase (Electrophorus electricus) (UniProt O42275). Kind of experiment: Inhibition of Electrophorus electricus AChE at 50 uM using acetylthiocholine iodide as substrate measured after 10 mins by Ellman's method relative to control.
Chain of Acetylcholinesterase (Electrophorus electricus) (O42275 24-633 limits assumed): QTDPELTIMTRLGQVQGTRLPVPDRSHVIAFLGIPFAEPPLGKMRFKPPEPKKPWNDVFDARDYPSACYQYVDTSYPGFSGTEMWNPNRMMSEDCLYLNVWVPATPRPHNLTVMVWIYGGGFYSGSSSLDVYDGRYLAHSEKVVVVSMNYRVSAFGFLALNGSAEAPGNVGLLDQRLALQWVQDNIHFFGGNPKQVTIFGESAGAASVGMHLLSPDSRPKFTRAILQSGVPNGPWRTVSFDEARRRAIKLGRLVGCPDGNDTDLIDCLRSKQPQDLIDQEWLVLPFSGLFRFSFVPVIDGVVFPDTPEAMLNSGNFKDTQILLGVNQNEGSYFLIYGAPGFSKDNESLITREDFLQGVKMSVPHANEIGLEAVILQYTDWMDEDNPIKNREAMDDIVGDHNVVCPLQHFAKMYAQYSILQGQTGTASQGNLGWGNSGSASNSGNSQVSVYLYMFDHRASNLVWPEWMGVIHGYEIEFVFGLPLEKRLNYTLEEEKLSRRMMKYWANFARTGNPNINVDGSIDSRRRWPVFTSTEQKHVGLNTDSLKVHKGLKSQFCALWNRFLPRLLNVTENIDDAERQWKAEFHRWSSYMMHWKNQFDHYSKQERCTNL

Chain of Acetylcholinesterase (O42275 whole entry): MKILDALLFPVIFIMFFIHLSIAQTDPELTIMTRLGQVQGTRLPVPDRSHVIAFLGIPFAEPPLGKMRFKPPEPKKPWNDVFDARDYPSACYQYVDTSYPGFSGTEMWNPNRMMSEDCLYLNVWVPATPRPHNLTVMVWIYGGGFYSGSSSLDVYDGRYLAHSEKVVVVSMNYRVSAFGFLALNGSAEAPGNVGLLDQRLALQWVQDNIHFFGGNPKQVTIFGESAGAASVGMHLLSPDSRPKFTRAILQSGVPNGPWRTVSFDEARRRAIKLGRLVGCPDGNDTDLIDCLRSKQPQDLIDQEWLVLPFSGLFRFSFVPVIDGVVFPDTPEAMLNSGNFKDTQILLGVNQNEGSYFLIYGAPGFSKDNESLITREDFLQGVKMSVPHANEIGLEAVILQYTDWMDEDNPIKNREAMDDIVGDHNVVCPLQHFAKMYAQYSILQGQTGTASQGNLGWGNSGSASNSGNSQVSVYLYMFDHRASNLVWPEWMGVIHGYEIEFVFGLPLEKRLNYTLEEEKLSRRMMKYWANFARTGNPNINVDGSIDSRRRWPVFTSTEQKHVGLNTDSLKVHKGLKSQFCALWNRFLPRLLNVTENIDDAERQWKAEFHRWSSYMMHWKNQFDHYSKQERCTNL

What is called pIC50 is the IC50 on a negative log10 scale, so that one unit is a factor of ten. Low readings indicate a large IC50, high ones a small IC50. `C=C[C@H]1CO[C@@H]2C[C@H]1C(=O)c1c3[nH]c4ccccc4c3cc[n+]12`: on Acetylcholinesterase, the pIC50 was 5.47. Usually inhibition stands for the percentage by which the read-out fell short of the control. Consider `CNCCc1c[nH]c2ccccc12`, for which the inhibition in experiment [1] is 49.8%.

At Acetylcholinesterase, `C=C[C@H]1CO[C@@H]2C[C@H]1Cc1c3[nH]c4ccccc4c3cc[n+]12` had a pIC50 of 5.00.

For the compound `CN1CCC2(O)c3ccccc3NC12` (centres undefined), the inhibition in experiment [1] came out at 53.7%.

For the origin of these results see ChEMBL document CHEMBL4130547, “Targeted Isolation of Monoterpene Indole Alkaloids from Palicourea sessilis” (J Nat Prod, 2017).
